The subject of assay [1] is Mus musculus. Briefly: Anticonvulsant activity in ip dosed albino CF1 mouse assessed as inhibition of bicucullin-induced tonic extensor convulsions. Format: functional.
Assay [2] relates to Mus musculus. Nature of the assay: Inhibition of oxotremorine-induced hypothermia in ip dosed albino CF1 mouse. Type of assay: functional.
Assay [3] concerns Mus musculus. Nature of the assay: Potentiation of yohimbine toxicity in ip dosed aggregated albino CF1 mouse. Type of assay: organism-based.
In assay [4] the test system is Mus musculus. Nature of the assay: […] activity in ip dosed albino CF1 mouse assessed as potentiation of gamma-butyrolactone-induced sleep. Type of assay: functional.
The test system of assay [5] is Mus musculus. Nature of the assay: Anticonvulsant activity in ip dosed albino CF1 mouse assessed as protection against pentylenetetrazole-induced clonic convulsions. Format: functional.
In assay [6] the test system is Mus musculus. Briefly: Inhibition of amphetamine aggregation toxicity in ip dosed albino CF1 mouse compound administered 1 hr prior to challenge measured after 2 hrs. Format: functional.
Assay [7] concerns Mus musculus. Nature of the assay: Reduction of hypoxic stress in ip dosed albino CF1 mouse assessed as prolongation of hypoxic survival time. Type of assay: functional.
The subject of assay [8] is Mus musculus. Nature of the assay: Hypothermic activity in ip dosed albino CF1 mouse assessed as effect on body temperature measured after 45 mins. Format: functional. The following applies: 0.75 h.
Assay [9] deals with Mus musculus. Briefly: Potentiation of apomorphine-induced gnawing in ip dosed albino CF1 mouse. Format: organism-based.
Assay [10] deals with Mus musculus. Nature of the assay: Inhibition of apomorphine-induced cage climbing in ip dosed albino CF1 mouse compound administered prior to challenge measured for 5 mins after 5 mins of challenge. Format: functional.

Broadly, the ED50 is the dose that gives a 50% effect, or the effect in half of the subjects. Consider `Nc1nnc2n1-c1ccc(Cl)cc1C(c1ccccc1)=NC2`, for which the 50% effective dose (ED50) was 20 mg/kg in the assay on Mus musculus [1]; more than 50 mg/kg in the assay on Mus musculus [2]; more than 50 mg/kg in the assay with Mus musculus [3]; 2 mg/kg in the assay with Mus musculus [4]; 14 mg/kg in the assay on Mus musculus [5]; more than 50 mg/kg in the assay with Mus musculus [6]. Moreover, the median effective dose (ED50) was more than 50 mg/kg in the assay with Mus musculus [7], 9 mg/kg in the assay with Mus musculus [8], more than 50 mg/kg in the assay with Mus musculus [9] and more than 50 mg/kg in the assay on Mus musculus [10].

On to `FC(F)(F)c1nnc2n1-c1ccc(Cl)cc1C(c1ccccc1)=NC2`, for which the ED50 in the assay with Mus musculus [1] is more than 50 mg/kg; in the assay with Mus musculus [2], more than 50 mg/kg; with Mus musculus [3], more than 50 mg/kg; in the assay with Mus musculus [4], more than 50 mg/kg; in the assay with Mus musculus [5], 20 mg/kg; in the assay on Mus musculus [6] it was more than 50 mg/kg. The ED50 in the assay on Mus musculus [7], with Mus musculus [8], in the assay on Mus musculus [9] and with Mus musculus [10] was more than 50 mg/kg throughout.

Turning to `Clc1ccccc1C1=NCc2nnc(Br)n2-c2ccccc21`, the 50% effective dose (ED50) in the assay with Mus musculus [1] was 25 mg/kg; in the assay on Mus musculus [2], more than 50 mg/kg; in the assay with Mus musculus [3] it was more than 50 mg/kg; with Mus musculus [4], 6.2 mg/kg; with Mus musculus [5] it was 10.5 mg/kg; in the assay with Mus musculus [6] it was more than 50 mg/kg. Moreover, the median effective dose (ED50) in the assay with Mus musculus [7] was 8.8 mg/kg; with Mus musculus [8], more than 50 mg/kg; in the assay with Mus musculus [9], more than 50 mg/kg; in the assay on Mus musculus [10], more than 50 mg/kg.

As to `CN(C)CCN(C)c1nnc2n1-c1ccc(Cl)cc1C(c1ccccc1)=NC2`, the 50% effective dose (ED50) with Mus musculus [1] is 42 mg/kg; in the assay on Mus musculus [2] it was more than 50 mg/kg; in the assay with Mus musculus [3], more than 50 mg/kg; in the assay on Mus musculus [4], 12.5 mg/kg; with Mus musculus [5], 30 mg/kg; in the assay on Mus musculus [6] it was more than 50 mg/kg. Further, the ED50 was more than 50 mg/kg in the assay with Mus musculus [7], 40 mg/kg in the assay with Mus musculus [8], more than 50 mg/kg with Mus musculus [9] and more than 50 mg/kg in the assay with Mus musculus [10].

As for `CN1CCN(c2nnc3n2-c2ccc(Br)cc2C(c2ccccn2)=NC3)CC1`, the ED50 is 8.8 mg/kg in the assay with Mus musculus [1]; more than 50 mg/kg with Mus musculus [2]; 35.4 mg/kg in the assay on Mus musculus [3]; 3.1 mg/kg in the assay with Mus musculus [4]; 12.5 mg/kg with Mus musculus [5]; more than 50 mg/kg in the assay with Mus musculus [6]. Also, the 50% effective dose (ED50) in the assay on Mus musculus [7] is 21 mg/kg; with Mus musculus [8], more than 50 mg/kg; in the assay with Mus musculus [9], 3.7 mg/kg; in the assay on Mus musculus [10], more than 50 mg/kg.

With `CN1CCN(c2nnc3n2-c2ccccc2C(c2ccccc2)=NC3)CC1`, the median effective dose (ED50) in the assay on Mus musculus [1] was more than 50 mg/kg; in the assay with Mus musculus [2], 35.4 mg/kg; with Mus musculus [3], more than 50 mg/kg; in the assay on Mus musculus [4], more than 50 mg/kg; with Mus musculus [5], 14.9 mg/kg; in the assay with Mus musculus [6] it was more than 50 mg/kg. Further, the ED50 in the assay on Mus musculus [7] is more than 50 mg/kg; with Mus musculus [8] it was 12.5 mg/kg; with Mus musculus [9], more than 50 mg/kg; with Mus musculus [10] it was 25 mg/kg.

With `c1ccc(C2=NCc3nnc(N4CCOCC4)n3-c3ccccc32)cc1`, the ED50 in the assay with Mus musculus [1] was more than 50 mg/kg; in the assay on Mus musculus [2], more than 50 mg/kg; in the assay on Mus musculus [3] it was more than 50 mg/kg; with Mus musculus [4], 20 mg/kg; with Mus musculus [5] it was 9 mg/kg; with Mus musculus [6], more than 50 mg/kg. Moreover, the ED50 in the assay with Mus musculus [7], in the assay on Mus musculus [8], in the assay on Mus musculus [9] and in the assay with Mus musculus [10] was more than 50 mg/kg in each case.

With `CCN(CC)CCOc1nnc2n1-c1ccc(Cl)cc1C(c1ccccc1)=NC2`, the ED50 with Mus musculus [1] was 12.5 mg/kg; in the assay with Mus musculus [2], more than 50 mg/kg; with Mus musculus [3], 42 mg/kg; in the assay with Mus musculus [4], 2.2 mg/kg; with Mus musculus [5] it was 8.8 mg/kg; with Mus musculus [6] it was more than 50 mg/kg. Further, the ED50 with Mus musculus [7] is 40 mg/kg; in the assay on Mus musculus [8] it was more than 50 mg/kg; with Mus musculus [9], more than 50 mg/kg; with Mus musculus [10], more than 50 mg/kg.

As for `Clc1ccc2c(c1)C(c1ccccc1)=NCc1nnc(C(Cl)Cl)n1-2`, the ED50 was 10 mg/kg in the assay with Mus musculus [1]; more than 50 mg/kg in the assay on Mus musculus [2]; more than 50 mg/kg in the assay on Mus musculus [3]; 3 mg/kg with Mus musculus [4]; 8 mg/kg with Mus musculus [5]; more than 50 mg/kg in the assay on Mus musculus [6]. Besides, the ED50 in the assay on Mus musculus [7], in the assay on Mus musculus [8], with Mus musculus [9] and with Mus musculus [10] was more than 50 mg/kg throughout.

The values are drawn from ChEMBL document CHEMBL3244037, “6-Aryl-4H-s-triazolo[4,3-a][1,4]benzodiazepines. Influence of 1-substitution on pharmacological activity” (J Med Chem, 1979).
